This is an account of results in US11578067B2, “Compound, and method for producing regulatory T cells” (Kyoto University, priority 2017, dated 2023).

The subject of one experiment is naive Th cells. The experiment in a line: Induction from naive T cells to Tregs by CDK8/19 inhibitory drugs (CD25+ Foxp3+ cells, EC150). It counts as cell-based, mouse. The note with it: concentration giving 150% CD25+ Foxp3+ cells versus 0.1% DMSO, 44 hours, geometric average of three trials. The method, then: The naive T cells were generated by the following method. […] Naive Th cells were prepared from the cell suspension using Naive CD4^+ T cell Isolation Kit, mouse (manufactured by Miltenyi Biotec). […] Further, Anti-Biotin MicroBeads and CD44 MicroBeads were added, followed by incubation at 4° C. for 10 minutes and then a centrifugation operation (300xg, 10 minutes). After the removal of the supernatant, the cells were resuspended in MEM and applied to an LS column (manufactured by Miltenyi Biotech). The cells contained in the flow-through liquid were used in the subsequent experiments. The prepared naive Th cells (2×10^5 cells) were stimulated with an anti-CD3/CD28 antibody (Gibco Dynabeads Mouse T-Activator CD3/CD28; manufactured by Thermo Fisher Scientific) in the presence of various CDK8/19 inhibitory drugs (usage amount: from 1 nM to 10,000 nM [[μM]]) at 5% CO2 at 37° C. […] The stained cells were measured using Canto II (manufactured by BD) by a flow cytometry method, and a proportion of CD25^+ Foxp3^+ cells in CD4^+ viable cells was analyzed using FlowJo (manufactured by FlowJo).

Experiment [1] relates to CD4+ CD25− Foxp3− CD62L+ CD44− naive T cells. Description: In vitro Foxp3 induction in naive T cells (Foxp3-GFP, flow cytometry). It is filed as cell-based, mouse. The note with it: hTGF-β1 2 ng/mL alone, anti-CD3/CD28, 72 hours. The method, then: The eFox mice were generated in accordance with a method described in Science. […] The prepared total lymphocytic cells were stained with an anti-CD4 antibody (RM-4.5; manufactured by BD), an anti-CD62L antibody (MEL-14; manufactured by BD), and an anti-CD44 antibody (IM7; manufactured by BD), and CD4^+ CD25^− Foxp3^− CD62L^+ CD44^− naive T cells were prepared using FACSAria™ II (manufactured by BD).
The cells after the treatment were stained with an anti-CD4 antibody (manufactured by BD), and a proportion of Foxp3-GFP-positive cells was analyzed by a flow cytometry method.

The subject of experiment [2] is human naive CD4+ T cells (CD4+ CD25− CD45RA+ Foxp3−). Description: Foxp3 induction in human naive CD4+ T cells with anti-TGF-β antibody or TGF-β. The note with it: hTGF-β1 2 ng/mL alone, hIL-2, 72 hours. It is filed as cell-based. The method, then:
Human naive CD4^+ T cells (CD4^+ CD25^− CD45RA^+ Foxp3^−) were prepared from human peripheral blood mononuclear cells (manufactured by Wako Pure Chemical Industries, Ltd.) in the same manner as in Example 17. As shown in the following items (i) to (iv), the prepared naive T cells (2×10^5 cells) were stimulated using 5 μL of an anti-CD3/CD28 antibody (Gibco Dynabeads Human T-Activator CD3/CD28; manufactured by Thermo Fisher Scientific) in the presence/absence of 2 ng/mL of hTGF-β1 (manufactured by R&D) or 10 μg/mL of an anti-TGF-β antibody (manufactured by R&D), hIL-2 (manufactured by Shionogi & Co., Ltd.) (50 U/ml), and 100 nM of Compound 1 Salt, and treated under a 5% CO2 atmosphere at 37° C. for 72 hours.
(§1) The cells after the treatment were stained with an anti-CD4 antibody (manufactured by BD) and an anti-Foxp3 antibody (manufactured by eBioscience), and a proportion of Foxp3-positive cells was analyzed by a flow cytometry method.

For experiment [3], the system named is human effector memory CD4+ T cells (CD4+ CD25− CD45RA− Foxp3−). The experiment in a line: Foxp3 induction in human effector memory CD4+ T cells. It is filed as cell-based. As to conditions: TGF-β 2 ng/mL alone, hIL-2, 72 hours. As for the experimental part:
Human peripheral blood mononuclear cells (manufactured by Wako Pure Chemical Industries, Ltd.) were stained using an anti-CD4 antibody (RPA-T4; manufactured by BD), an anti-CD25 antibody (M-A251; manufactured by BD), and an anti-CD45RA antibody (HI100; manufactured by BD), and human effector memory CD4^+ T cells (CD4^+ CD25^− CD45RA^− Foxp3^−) were prepared using FACSAria™ II (manufactured by BD).
as §1

In experiment [4] the test system is mouse actively-sensitized antibody-induced nasal allergy model. Description: Actively-sensitized antibody-induced nasal allergy model, nasal rubbing. It counts as in vivo. The method, then: The mouse actively-sensitized antibody-induced nasal allergy model was generated by the following method. Seven-week-old BALB/c mice (manufactured by SLC, male) were initially sensitized by intraperitoneal administration of 200 μL of a mixed liquid of OVA (manufactured by Wako Pure Chemical Industries, Ltd.) (0.5 mg/mL) (100 μg/mouse), 5 mg/mL of aluminum hydroxide (ALUM; manufactured by Wako Pure Chemical Industries, Ltd.), and 1.5 μg/mL of pertussis toxin (manufactured by Wako Pure Chemical Industries, Ltd.). Next, 5 days after the initial sensitization, as additional sensitization, OVA (50 μg/mouse) was administered into the dorsal skin of the mice to perform systemic sensitization. After that, OVA (100 μg/mouse) was administered to the mice as nasal drops at a frequency of once a day as local sensitization for 8 days from day 18 after the initial sensitization to elicit a nasal allergy symptom due to active sensitization.
A 0.5% (w/v) methylcellulose solution serving as a vehicle was used for a vehicle control group, and dexamethasone (manufactured by Tokyo Chemical Industry Co., Ltd.) was used for a positive control.

The target of the next experiment is CDK8 (Homo sapiens, UniProt P49336). The experiment in a line: CDK8 kinase activity measurement (QSS Assist CDK8/CycC_ELISA kit).
Another experiment concerns the target CDK19 (Homo sapiens, UniProt Q9BWU1). The experiment in a line: CDK19 kinase activity measurement (QSS Assist CDC2L6/CycC_ELISA kit).
In a further experiment the test system is OVA-induced asthma model. The experiment in a line: OVA-induced asthma model, airway resistance after methacholine. It counts as in vivo, mouse. The note with it: 0.5 mg/kg oral once a day, 34 days, 25 mg/mL methacholine.
For another experiment, the system named is Th1-type asthma model. Description: Th1-type asthma model, airway resistance after methacholine. As to conditions: 0.5 mg/kg oral once a day, 17 days, 25 mg/mL methacholine. It counts as in vivo, mouse.

CDK8, sequence (P49336 whole entry): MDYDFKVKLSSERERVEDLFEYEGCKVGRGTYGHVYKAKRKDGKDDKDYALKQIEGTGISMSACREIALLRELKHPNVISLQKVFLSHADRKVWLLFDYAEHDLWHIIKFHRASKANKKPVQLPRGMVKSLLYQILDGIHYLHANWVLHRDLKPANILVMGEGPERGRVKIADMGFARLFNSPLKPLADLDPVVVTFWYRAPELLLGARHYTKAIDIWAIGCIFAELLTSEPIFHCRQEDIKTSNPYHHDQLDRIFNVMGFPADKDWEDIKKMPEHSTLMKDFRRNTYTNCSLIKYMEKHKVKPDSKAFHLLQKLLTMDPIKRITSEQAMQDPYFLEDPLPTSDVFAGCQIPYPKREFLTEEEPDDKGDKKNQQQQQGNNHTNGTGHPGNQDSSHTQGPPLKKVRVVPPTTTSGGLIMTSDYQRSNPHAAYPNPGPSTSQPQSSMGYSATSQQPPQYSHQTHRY
CDK8, sequence (P24863 whole entry partner): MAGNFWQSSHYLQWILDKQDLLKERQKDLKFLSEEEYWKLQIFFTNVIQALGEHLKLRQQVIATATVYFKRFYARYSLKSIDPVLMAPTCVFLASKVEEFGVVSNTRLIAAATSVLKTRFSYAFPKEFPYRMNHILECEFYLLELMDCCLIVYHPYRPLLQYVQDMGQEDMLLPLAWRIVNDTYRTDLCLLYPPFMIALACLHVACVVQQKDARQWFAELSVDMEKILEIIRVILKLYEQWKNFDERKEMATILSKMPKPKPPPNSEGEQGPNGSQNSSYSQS
CDK19, sequence (Q9BWU1 whole entry): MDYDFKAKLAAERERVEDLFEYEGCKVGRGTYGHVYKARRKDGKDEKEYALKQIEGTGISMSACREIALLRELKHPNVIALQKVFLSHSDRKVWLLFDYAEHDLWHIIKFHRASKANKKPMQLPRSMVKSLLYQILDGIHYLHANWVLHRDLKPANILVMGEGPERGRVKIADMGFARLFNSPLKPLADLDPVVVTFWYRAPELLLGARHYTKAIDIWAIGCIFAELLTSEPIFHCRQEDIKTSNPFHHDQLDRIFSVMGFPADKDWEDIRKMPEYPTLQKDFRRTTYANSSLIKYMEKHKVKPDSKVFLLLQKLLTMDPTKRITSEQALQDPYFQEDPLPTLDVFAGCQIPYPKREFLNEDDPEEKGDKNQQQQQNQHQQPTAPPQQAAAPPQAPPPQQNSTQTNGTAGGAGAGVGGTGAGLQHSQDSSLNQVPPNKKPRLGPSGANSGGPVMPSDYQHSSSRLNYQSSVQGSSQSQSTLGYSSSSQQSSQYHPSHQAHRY
CDK19, sequence (P24863 whole entry partner): as the sequence (P24863 whole entry partner) above
Procedure for CDK19: QSS Assist™ CDK8/CycC_ELISA kit (manufactured by Carna Biosciences) was used for the kinase activity measurement of CDK8. […] After washing with a wash buffer (50 mM Tris-HCl (pH 7.5), 150 mM NaCl, 0.02% Tween-20), 100 μL of a 0.1% BSA solution was added to the plate, followed by incubation at room temperature for 30 minutes. The 0.1% BSA solution was removed, and then 50 μL of a primary antibody solution included with the kit was added to the plate, followed by incubation at room temperature for 30 minutes. After washing with a wash buffer, 50 μL of a secondary antibody solution included with the kit was added to the plate, followed by incubation at room temperature for 30 minutes. After washing with a wash buffer, 50 μL of TMB Chromogen Solution (manufactured by Lifetechnologies) was added to the plate, followed by incubation at room temperature for 5 minutes. 50 μL of 0.1 M H2SO4 was added to the plate to stop a chromogenic reaction. […] In addition, QSS Assist™ CDC2L6/CycC_ELISA kit (manufactured by Carna Biosciences) was used for the kinase activity measurement of CDK19. […] After washing with a wash buffer, 100 μL of a 0.1% BSA solution was added to the plate, followed by incubation at room temperature for 30 minutes. […]
Source text for OVA-induced asthma model: The OVA-induced asthma model was generated by the following method. […] After that, the mice were sensitized by inhalation of 1% OVA once a day through use of an ultrasonic nebulizer (manufactured by OMRON Corporation) to induce inflammation for consecutive 6 days from day 29 after the initial sensitization. A normal group similarly received intraperitoneal administration and inhalation of physiological saline.
Similarly, a vehicle control group and a positive control received repeated oral administration of a 0.5% (w/v) methylcellulose solution serving as a vehicle and 1 mg/kg of dexamethasone (manufactured by SIGMA), respectively. On the following day of the final antigen induction, for all the mice, airway reactivity was measured under an awake state using airway resistance after methacholine solution inhalation as an indicator. […] After the inhalation of each solution, airway resistance (specific airway resistance: sRaw) was measured. An average of 100 breathes was adopted as individual sRaw at each measurement point. The sRaw was measured under an awake state by a double flow plethysmograph method using a comprehensive respiratory function measurement system (Pulmos-1; manufactured by M. I. P. S.).
Procedure for Th1-type asthma model: The Th1-type asthma model was generated by the following method. Eight-week-old Balb/c mice (manufactured by Charles River Laboratories) were initially sensitized by single intraperitoneal administration of 200 μL of physiological saline containing endotoxin-free OVA (manufactured by Hyglos) (50 μg/mouse) and complete Freund's adjuvant (FCA; manufactured by Wako Pure Chemical Industries, Ltd.). After that, the mice were intranasally administered 50 μL of phosphate-buffered saline (PBS) containing endotoxin-free OVA (100 μg/mouse) and lipopolysaccharide (LPS, manufactured by SIGMA) (5 μg/mouse) to induce inflammation for consecutive 3 days from day 15 after the initial sensitization. A normal group received intraperitoneal administration of physiological saline and intranasal administration of PBS.
Similarly, a control group and a positive control received repeated oral administration of a 0.5% (w/v) methylcellulose solution serving as a vehicle and 1 mg/kg of dexamethasone (manufactured by SIGMA), respectively. On the following day of the final antigen induction (day 18), airway reactivity was measured in the same manner as in the section (1).

In the case of `N#Cc1ccc2ncnc(NCCc3ccccc3)c2c1` [Senexin A], the EC150 in the experiment on naive Th cells is 192.2 nM.
For the compound “TGF-β: hTGF-β1 (manufactured by R&D), used as control and in combination”, the “proportion of Foxp3-GFP-positive cells” value in experiment [1] was found to be 44.3%. In addition, the “proportion of Foxp3-positive cells” value in experiment [2] stood at 26.9%; in experiment [3], 28.5%.
Consider `COc1ccc(N2CCC(n3c(-c4nccnc4N)nc4c(C)nccc43)CC2)cc1` [Compound 2, 3-{1-[1-(4-methoxyphenyl)piperidin-4-yl]-4-methyl-1H-imidazo[4,5-c]pyridin-2-yl}pyrazin-2-amine], for which the “number of times of nasal rubbing” value in experiment [4] (1.0 mg/kg oral daily) and in [4] (3.0 mg/kg oral daily) was “significantly suppressed” throughout. For the same compound, the IC50 against CDK8 was determined as 0.7 nM; on CDK19, 1.9 nM. Also, the “airway reactivity (sRaw)” value with OVA-induced asthma model and in the experiment with Th1-type asthma model was “suppressed an increase in airway reactivity” each time. This compound also gave an EC150 with naive Th cells of 10.2 nM.
In the experiment on naive Th cells, `NC(=O)[C@H](Nc1cncc(-c2ccc(O)c(Cl)c2)c1)c1ccccc1` [(R)-2-[5-(3-Chloro-4-hydroxyphenyl)-pyridin-3-ylamino]-2-phenylacetamide] gave an EC150 of 2.8 nM.
